Reference: PMC8267945, “Plumbagin, a Natural Product with Potent Anticancer Activities, Binds to and Inhibits Dihydroorotase, a Key Enzyme in Pyrimidine Biosynthesis” (International Journal of Molecular Sciences, 2021)
“Also recorded” adds a separate entry of the source.

Columns and labels:
ScDHOase [1] = biological target: T1, ScDHOase (Saccharomyces cerevisiae, UniProt P20051); experiment: fluorescence quenching binding assay; settings: for quenching of the intrinsic fluorescence of ScDHOase: 200 μM compound, 324 nm, excitation 280 nm
T1 construct: made in house; host or cells: E. coli BL21(DE3)
Protocol: Figure 7 The data used to calculate the Kd values of various DHOases. (A) The fluorescence emission spectra of ScDHOase with PLU of different concentrations (0–200 μM; 0, 10, 20, 50, 75, 100, 125, 150, 175, and 200 μM). The decrease in intrinsic fluorescence of protein was measured at 324 nm upon excitation at 280 nm with a spectrofluorometer. […] (B) The fluorescence emission spectra of huDHOase with PLU of different concentrations (0–200 μM). (C) The fluorescence emission spectra of StDHOase with PLU of different concentrations. (D) The fluorescence emission spectra of ScDHOase–R18A with PLU of different concentrations. (E) The fluorescence emission spectra of ScDHOase–T106A with PLU of different concentrations. […] (F) An aliquot amount of PLU was added to the enzyme solution to determine the Kd. The Kd was obtained by the following equation: ΔF = ΔFmax − Kd(ΔF/[PLU]). Data points are an average of 2–3 determinations within a 10% error.
The decrease in the intrinsic fluorescence of DHOase was measured with a spectrofluorometer (Hitachi F-2700; Hitachi High-Technologies, Japan). The Kd was obtained using the following equation: ΔF = ΔFmax − Kd(ΔF/[PLU]).
The Kd value of the purified DHOase was determined using the fluorescence quenching method as previously described for DHOase, DHPase, and DnaB helicase. Briefly, an aliquot of the compound was added into the solution containing DHOase (1 μM) and 50 mM HEPES at pH 7.0. The decrease in the intrinsic fluorescence of DHOase was measured at 324 nm upon excitation at 280 nm and 25 °C with a spectrofluorometer (Hitachi F-2700; Hitachi High-Technologies, Japan). The Kd was obtained using the following equation: ΔF = ΔFmax − Kd(ΔF/[PLU]).

huDHOase = biological target: T2, huDHOase (Homo sapiens, UniProt P27708); experiment: rapid spectrophotometric DHOase enzyme assay (hydrolysis of DHO); type: biochemical; settings: for inhibition of huDHOase (in words): 200 μM for the compounds of Figure 2, AZT concentration not given; for decrease of the activity of huDHOase: 200 μM compound in the standard assay
T2 construct: huDHOase1456-1846-NdeI-N; made in house; host or cells: E. coli BL21(DE3)
T2 sequence (P27708 1456-1846): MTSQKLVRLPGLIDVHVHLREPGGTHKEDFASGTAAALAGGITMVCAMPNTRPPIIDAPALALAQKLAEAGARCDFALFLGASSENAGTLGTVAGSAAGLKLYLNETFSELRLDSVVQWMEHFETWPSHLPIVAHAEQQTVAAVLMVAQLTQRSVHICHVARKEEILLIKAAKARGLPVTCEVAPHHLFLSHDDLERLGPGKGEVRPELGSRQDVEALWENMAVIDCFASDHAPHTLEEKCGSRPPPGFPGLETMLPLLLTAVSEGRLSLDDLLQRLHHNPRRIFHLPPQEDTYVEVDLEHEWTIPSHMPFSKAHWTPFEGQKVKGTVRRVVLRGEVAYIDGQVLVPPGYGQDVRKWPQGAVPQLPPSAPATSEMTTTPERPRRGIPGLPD
Protocol: A rapid spectrophotometric assay was used to determine the activity of DHOase. Briefly, the hydrolysis of DHO was measured at 25 °C as the decrease in absorbance at 230 nm. The purified DHOase was added to a 2 mL solution containing 0.5 mM DHO and 100 mM Tris–HCl at pH 8.0 to start the reaction. […] The hydrolysis of DHO was monitored using a UV/Vis spectrophotometer (Hitachi U 3300; Hitachi High-Technologies, Tokyo, Japan). A unit of activity was defined as the amount of enzyme catalyzing the hydrolysis of 1 μmol DHO/min, and the specific activity was expressed in terms of units of activity per mg of enzyme. The kinetic parameters Km and Vmax were determined from a nonlinear plot by fitting the hydrolyzing rate from individual experiments to the Michaelis–Menten equation (Enzyme Kinetics module of Sigma-Plot; Systat Software, Chicago, IL, USA).

ScDHOase [2] = biological target: T1, ScDHOase; settings: cited from earlier work
Plasmodium falciparum = system: Plasmodium falciparum; design: method as in PMID 2675756; settings: read-out: concentration giving 50% growth inhibition of parasites; cited from earlier work
4T1 cells [3] = experiment: chromatin condensation assay (Hoechst staining); type: cell-based, mouse; settings: 5-FU 5 μM
Protocol: The apoptosis in 4T1 cells was assayed with Hoechst 33342 staining. The 4T1 cells were seeded in 6-well plates at a density of 5 × 10^5 cells per well in a volume of […] of culture medium. Cells were allowed to adhere for 16 h. After different treatments, cells were incubated for an additional 24 h, washed with PBS, stained with the Hoechst dye (1 μg·mL^−1) in the dark at RT for 10 min, and imaged using an inverted fluorescence microscope (Axiovert 200 M; Zeiss Axioplam, Oberkochen, Germany) at excitation and emission wavelengths (λem) of 360 and 460 nm, respectively. The apoptotic index was calculated as follows: apoptotic index = apoptotic cell number/(apoptotic cell number + nonapoptotic cell number).

in vitro = type: cell-based, mouse; settings: mouse
Protocol: The 4T1 cells (1 × 10^4) were incubated with PLU in a 100 μL volume. After 24 h, the anticancer potentiality was estimated.

4T1 cells [4] = experiment: clonogenic formation assay; type: cell-based, mouse; settings: 5-FU 5 μM
Protocol: A clonogenic formation assay was used to assess the 4T1 cell growth to study whether the PLU can inhibit 4T1 cell proliferation. Briefly, 4T1 cells were seeded at a density of 10^3 cells per well into 6-well plates and incubated overnight for attachment. After different treatments, plates were incubated for 5–7 days to allow clonogenic growth. After washing with PBS, colonies were fixed with methanol and stained with 0.5% crystal violet for 20 min, and the number of colonies was counted under a light microscope.

4T1 cells [5] = experiment: wound-healing assay; type: cell-based, mouse; settings: 5-FU 5 μM
Protocol: The wound-healing assay was performed to study whether PLU can inhibit 4T1 cell migration. Briefly, 4T1 cells were seeded in 24-well plates, incubated in serum-reduced medium for 6 h, wounded in a line across the well with a 200 μL pipette tip, and washed twice with the serum-reduced medium. After different treatments, cells were incubated for 24 h to allow migration.

T1 sequence (P20051 whole entry): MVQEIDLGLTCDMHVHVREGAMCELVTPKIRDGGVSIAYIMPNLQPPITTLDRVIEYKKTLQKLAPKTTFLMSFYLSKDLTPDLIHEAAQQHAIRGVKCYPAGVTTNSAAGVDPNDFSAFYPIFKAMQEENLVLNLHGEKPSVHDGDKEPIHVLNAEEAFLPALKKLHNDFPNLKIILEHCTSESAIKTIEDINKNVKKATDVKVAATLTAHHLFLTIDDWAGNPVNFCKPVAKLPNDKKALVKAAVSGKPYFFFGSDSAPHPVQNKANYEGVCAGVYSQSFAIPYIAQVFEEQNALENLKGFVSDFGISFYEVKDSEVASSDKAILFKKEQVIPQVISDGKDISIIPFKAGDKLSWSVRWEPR

Row | SMILES | quenching of the intrinsic fluorescence of ScDHOase (ScDHOase [1]) [%] | inhibition of huDHOase (in words) (huDHOase) | further results
1 | Nc1n[nH]c(N)n1 [3,5-diamino-1,2,4-triazole] | 3.9 | None of these compounds decreased the activity of huDHOase | –
2 | Nc1nc[nH]n1 [3-amino-1,2,4-triazole] | 2.8 | None of these compounds decreased the activity of huDHOase | –
3 | Nc1c[nH]c(=O)[nH]c1=O [5-AU, 5-aminouracil] | – | did not inhibit the activity of huDHOase | λmax of ScDHOase emission (red shift) (ScDHOase [2]): from 324 to 335.5
4 | O=C(O)c1[nH]c(=O)[nH]c(=O)c1F [5-FOA, 5-fluoroorotate] | 78.2 | – | IC50 (Plasmodium falciparum): 0.006 µM; decrease of the activity of huDHOase (huDHOase): 26%
5 | O=c1[nH]cc(F)c(=O)[nH]1 [5-FU, 5-fluorouracil] | – | did not inhibit the activity of huDHOase; also recorded: cannot inhibit DHOase | λmax of ScDHOase emission (red shift) (ScDHOase [2]): from 324 to 335.5; Apoptotic rate (4T1 cells [3]): 26%; mortality at 24 h, 5 μM (in vitro): 27%; Colony count (4T1 cells [4]): 54%; Migration rate (4T1 cells [5]): 65%
6 | O=C(O)CC1NC(=O)NC1=O (stereo not shown) [5-HAA, 5-hydantoinacetic acid] | 1.5 | did not inhibit huDHOase | –
7 | CSc1nnn[nH]1 [5-methylthio-1H-tetrazole] | 2.3 | None of these compounds decreased the activity of huDHOase | –
8 | Cc1cn([C@H]2C[C@H](N=[N+]=[N-])[C@@H](CO)O2)c(=O)[nH]c1=O [AZT] | – | did not inhibit the activity of huDHOase | –
9 | CC(=O)NO [Acetohydroxamate] | 2.5 | – | –
10 | O=C1CCC(C(=O)O)NC(=O)N1 (stereo not shown) [DDCA, 2,7-dioxo-1,3-diazepane-4-carboxylic acid] | 3.0 | did not inhibit huDHOase | –
11 | N=C1NC(=O)CC(C(=O)O)S1 (stereo not shown) [ITCA, 2-imino-4-oxo-1,3-thiazinane-6-carboxylic acid] | 15.6 | – | decrease of the activity of huDHOase (huDHOase): 12%
12 | CC(=O)NCCc1cnc[nH]1 [N-ω-acetylhistamine] | 2.8 | None of these compounds decreased the activity of huDHOase | –
13 | O=C(O)CC(O)C(=O)O (stereo not shown) [malate] | 10.9 | – | decrease of the activity of huDHOase (huDHOase): 6%
14 | O=C(O)c1cc(=O)[nH]c(=O)[nH]1 [orotic acid] | 65.9 | – | Kd (ScDHOase [1]): 198.3 ± 1.2 µM
